Results published in patent US7323447B2, “Hepatitis C virus inhibitors” (Bristol-Myers Squibb Company, priority 2005, dated 2008).

Assays:
[1] = tested on: HCV replicon (Renilla luciferase) in HUH-7 cells; experiment: HCV replicon luciferase reporter assay; type: cell-based, Hepatitis C virus (strain 1b); details: Huh-7, 96 h, 4 days
Excerpt: As a secondary assay, EC50 determinations from the replicon FRET assay were confirmed in a replicon luciferase reporter assay. Utilization of a replicon luciferase reporter assay was first described by Krieger et al (Krieger N, Lohmann V, and Bartenschlager R, J. Virol. 75(10):4614-4624 (2001)). The replicon construct described for our FRET assay was modified by inserting cDNA encoding a humanized form of the Renilla luciferase gene and a linker sequence fused directly to the 3′-end of the luciferase gene. This insert was introduced into the replicon construct using an Asc1 restriction site located in core, directly upstream of the neomycin marker gene. The adaptive mutation at position 1179 (serine to isoleucine) was also introduced (Blight K J, Kolykhalov, A A, Rice, C M, Science 290(5498): 1972-1974). A stable cell line constitutively expressing this HCV replicon construct was generated as described above. […] Following 4 days in a 37° C./5% CO2 incubator, cells were analyzed for Renilla Luciferase activity using the Promega Dual-Glo Luciferase Assay System. […] Plates were read on a Packard TopCount NXT using a luminescence program.
The percentage inhibition was calculated using the formula below: […]
The values were graphed and analyzed using XLfit to obtain the EC50 value.

[2] = biological target: T1, human neutrophil elastase (HNE) (Homo sapiens, UniProt P08246); experiment: Specificity assay, human neutrophil elastase; type: biochemical; details: read-out: HLE activity in the specificity assays (IC50)
T1 construct: purchased Sigma or EMDbiosciences
T1 sequence (P08246 30-267): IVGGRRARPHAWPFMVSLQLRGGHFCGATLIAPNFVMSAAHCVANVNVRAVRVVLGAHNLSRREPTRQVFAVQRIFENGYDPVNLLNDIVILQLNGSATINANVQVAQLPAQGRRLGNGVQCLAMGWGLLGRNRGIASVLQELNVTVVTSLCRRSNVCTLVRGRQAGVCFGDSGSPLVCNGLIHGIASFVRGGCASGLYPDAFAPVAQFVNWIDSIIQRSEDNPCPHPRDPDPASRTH
Protocol: (§1) The specificities of compounds of the present disclosure were determined against a variety of serine proteases: human neutrophil elastase (HNE), porcine pancreatic elastase (PPE) and human pancreatic chymotrypsin and one cysteine protease: human liver cathepsin B. In all cases, a 96-well plate format protocol using colorimetric p-nitroaniline (pNA) substrate or fluorometric Amino-Methyl-Coumarin (AMC) substrate, specific for each enzyme was used as described previously (PCT Patent Application No. WO 00/09543) with some modifications. All enzymes were purchased from Sigma or EMDbiosciences while the substrates were from Bachem.
(§2) Each pNA assay included a 2 hours enzyme-inhibitor pre-incubation at room temperature followed by addition of substrate and hydrolysis to ˜15% conversion as measured on a Spectramax Pro microplate reader. The cathepsin B assay was initiated by adding substrate to a 10 min enzyme-inhibitor pre-incubation at room temperature, and the assay plate measured immediately using the Cytofluor Series 4000. Compound concentrations varied from 100 to 0.4 μM depending on their potency. […]
(§3) The percentage of inhibition was calculated using the formula: [1−((UVinh−UVblank)/(UVctl−UVblank))]×100 […]

[3] = biological target: T2, porcine pancreatic elastase (PPE) (Sus scrofa, UniProt P00772); experiment: Specificity assay, porcine pancreatic elastase; type: biochemical; details: read-out: PPE activity in the specificity assays (IC50)
T2 construct: purchased Sigma or EMDbiosciences
Protocol: as §1, §2, §3

[4] = biological target: T3, human pancreatic chymotrypsin (Homo sapiens, UniProt P17538); experiment: Specificity assay, chymotrypsin; type: biochemical; details: read-out: Chymotrypsin activity in the specificity assays (IC50)
T3 construct: purchased Sigma or EMDbiosciences
Protocol: as §1, §2, §3

human liver cathepsin B = biological target: T4, human liver cathepsin B (Homo sapiens, UniProt P07858); experiment: Specificity assay, cathepsin B; type: biochemical; details: read-out: Cathepsin B activity in the specificity assays (IC50)
T4 construct: purchased Sigma or EMDbiosciences; host or cells: human liver
Protocol: as §1, §2, §3

T2 sequence (P00772 27-266): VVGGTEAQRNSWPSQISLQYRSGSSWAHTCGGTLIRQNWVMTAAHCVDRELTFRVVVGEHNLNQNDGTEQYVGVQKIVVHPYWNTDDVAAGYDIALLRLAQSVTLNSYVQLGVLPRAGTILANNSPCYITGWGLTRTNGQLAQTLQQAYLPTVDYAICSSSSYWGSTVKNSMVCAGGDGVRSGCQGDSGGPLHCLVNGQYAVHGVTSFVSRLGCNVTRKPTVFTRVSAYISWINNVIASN
T3 sequence (P17538 19-263): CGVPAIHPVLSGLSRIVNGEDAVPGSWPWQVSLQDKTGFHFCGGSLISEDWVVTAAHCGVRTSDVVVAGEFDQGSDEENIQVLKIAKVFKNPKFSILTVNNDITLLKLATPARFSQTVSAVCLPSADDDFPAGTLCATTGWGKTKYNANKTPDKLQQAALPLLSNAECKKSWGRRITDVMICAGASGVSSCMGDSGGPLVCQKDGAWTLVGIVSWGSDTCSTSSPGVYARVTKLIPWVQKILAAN

C=C[C@@H]1C[C@]1(NC(=O)[C@@H]1C[C@@H](OC(=O)N2Cc3cccc(F)c3C2)CN1C(=O)[C@@H](OC(=O)NC(C)(C)C)C(C)(C)C)C(=O)NS(=O)(=O)C1CC1 [Example 56Compound 56]
EC50 [1]: 247 nM
IC50 [2]: > 100 µM
IC50 [3]: > 100 µM
IC50 [4]: > 100 µM
IC50 (human liver cathepsin B): > 100 µM
